Values after ≈ are worked out from the molar mass of the structure shown. Non-standard residues stand in square brackets, D forms with d. Residues, ends and D or L forms follow the SMILES beside them. *: point of attachment. Lauroyl = CCCCCCCCCCCC(=O)*
Tests used:
Assay type in all cases: cell-based
[1] = tested on: Escherichia coli ATCC 25922; assay: MIC, NCCLS M7-A6 broth microdilution (Table 9, no superscript); details: ATCC 25922
Procedure, shortened: (§1)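 MIC, read as the lowest peptide concentration without visible growth compared with peptide-free wells, after overnight incubation at 37° C. Wells held cation-adjusted Mueller Hinton broth and a final inoculum of 5×10^5 to 1×10^6 CFU/mL from log-phase culture.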

[2] = tested on: Pseudomonas aeruginosa ATCC 27853; assay: as above; details: ATCC 27853
Procedure, shortened: as §1

[3] = tested on: Staphylococcus epidermidis ATCC 12228; assay: as above; details: ATCC 12228
Procedure, shortened: as §1

[4] = tested on: Salmonella dublin (Lane); assay: as above
Procedure, shortened: as §1

[5] = tested on: Propionibacterium acnes ATCC 6919; assay: MIC, agar dilution method NCCLS M11-A6, Brucella agar, anaerobic (Table 9, superscript c); details: ATCC 6919
Procedure, shortened: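 MIC taken as the lowest peptide level giving no colonies on the plate. Plates were inoculated to 1.5×10^8 CFU/milliliter, then kept anaerobically at 37° C. for 48-96 hours; method follows NCCLS M11-A6.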

[6] = tested on: Staphylococcus aureus ATCC 29213; assay: MIC, NCCLS M7-A6 broth microdilution, cation-adjusted Mueller Hinton broth (Table 9, no superscript); details: ATCC 29213
Procedure, shortened: as §1

[7] = tested on: Candida albicans ATCC 18804; assay: MIC in yeasts, NCCLS M27-A2 broth microdilution, RPMI 1640 (Table 9, letter e); details: ATCC 18804
Procedure, shortened: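 Plates incubated 24 to 48 hours at 37° C, with yeast seeded at 0.5×10^3–2.5×10^3 CFU/milliliter final in RPMI 1640 (glutamine, phenol red indicator). MIC was read as the lowest peptide concentration showing no visible growth.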

SMILES	MIC E. coli [1]	MIC P. aeruginosa [2]	MIC S. epidermidis [3]	MIC S. dublin [4]	MIC P. acnes [5]	MIC S. aureus [6]	MIC C. albicans [7]
CCCCCCCCCCCC(=O)N[C@@H](CCCNC(=N)N)C(=O)N[C@@H](CO)C(=O)N[C@@H](CCCNC(=N)N)C(=O)N[C@@H](Cc1c[nH]c2ccccc12)C(=O)N[C@@H](CCCNC(=N)N)C(=O)N[C@@H](CC(=O)O)C(=O)N[C@H](C(=O)N[C@@H](C)C(=O)N[C@@H](CCCNC(=N)N)C(=O)N[C@@H](CC(N)=O)C(N)=O)C(C)C [Peptide 100, Lauryl-RSRWRDVARN-NH2] (Lauroyl-RSRWRDVARN-NH2)	>64 µg/mL	>64 µg/mL	16 µg/mL (≈ 10.7 µM)	>64 µg/mL	>64c ug/mL	8 µg/mL (≈ 5.34 µM)	32e ug/mL
CCCCCCCCCCCC(=O)N[C@@H](CCCNC(=N)N)C(=O)N[C@@H](CO)C(=O)N[C@@H](CCCNC(=N)N)C(=O)N[C@@H](Cc1c[nH]c2ccccc12)C(=O)N[C@@H](CCCNC(=N)N)C(=O)N[C@@H](CC(=O)O)C(=O)N[C@H](C(=O)N[C@@H](C)C(=O)N[C@@H](CCCNC(=N)N)C(N)=O)C(C)C [Peptide 101, Lauryl-RSRWRDVAR-NH2] (Lauroyl-RSRWRDVAR-NH2)	32 µg/mL (≈ 23.1 µM)	32 µg/mL (≈ 23.1 µM)	2 µg/mL (≈ 1.45 µM)	>64 µg/mL	>64c ug/mL	4 µg/mL (≈ 2.89 µM)	>64e ug/mL
CCCCCCCCCCCC(=O)N[C@@H](CCCNC(=N)N)C(=O)N[C@@H](CO)C(=O)N[C@@H](CCCNC(=N)N)C(=O)N[C@@H](Cc1c[nH]c2ccccc12)C(=O)N[C@@H](CCCNC(=N)N)C(=O)N[C@@H](CC(=O)O)C(=O)N[C@H](C(=O)N[C@@H](C)C(N)=O)C(C)C [Peptide 102, Lauryl-RSRWRDVA-NH2] (Lauroyl-RSRWRDVA-NH2)	>64 µg/mL	64 µg/mL (≈ 52.2 µM)	8 µg/mL (≈ 6.52 µM)	>64 µg/mL	>64c ug/mL	4 µg/mL (≈ 3.26 µM)	64e ug/mL
CCCCCCCCCCCC(=O)N[C@@H](CO)C(=O)N[C@@H](CCCNC(=N)N)C(=O)N[C@@H](Cc1c[nH]c2ccccc12)C(=O)N[C@@H](CCCNC(=N)N)C(=O)N[C@@H](CC(=O)O)C(=O)N[C@H](C(=O)N[C@@H](C)C(N)=O)C(C)C [Peptide 104, Lauryl-SRWRDVA-NH2] (Lauroyl-SRWRDVA-NH2)	>64 µg/mL	>64 µg/mL	>64 µg/mL	>64 µg/mL	>64c ug/mL	4 µg/mL (≈ 3.74 µM)	>64e ug/mL
CCCCCCCCCCCC(=O)N[C@H](CCCNC(=N)N)C(=O)N[C@H](CO)C(=O)N[C@H](CCCNC(=N)N)C(=O)N[C@H](Cc1c[nH]c2ccccc12)C(=O)N[C@H](CCCNC(=N)N)C(=O)N[C@H](CC(=O)O)C(=O)N[C@@H](C(=O)N[C@H](C)C(=O)N[C@H](CCCNC(=N)N)C(=O)N[C@H](CC(N)=O)C(=O)N[C@H](Cc1ccccc1)C(N)=O)C(C)C [Peptide 116, Lauryl-rsrwrdvarnf-NH2] (Lauroyl-[dR][dS][dR][dW][dR][dD][dV][dA][dR][dN][dF]-NH2)	8 µg/mL (≈ 4.87 µM)	8 µg/mL (≈ 4.87 µM)	4 µg/mL (≈ 2.43 µM)	8 µg/mL (≈ 4.87 µM)	8c ug/mL	8 µg/mL (≈ 4.87 µM)	32e ug/mL
CCCCCCCCCCCC(=O)N[C@H](CCCNC(=N)N)C(=O)N[C@H](CO)C(=O)N[C@H](CCCNC(=N)N)C(=O)N[C@H](Cc1c[nH]c2ccccc12)C(=O)N[C@H](CCCNC(=N)N)C(=O)N[C@H](CC(=O)O)C(=O)N[C@@H](C(=O)N[C@H](C)C(=O)N[C@H](CCCNC(=N)N)C(N)=O)C(C)C [Peptide 118, Lauryl-rsrwrdvar-NH2] (Lauroyl-[dR][dS][dR][dW][dR][dD][dV][dA][dR]-NH2)	64 µg/mL (≈ 46.3 µM)	32 µg/mL (≈ 23.1 µM)	8 µg/mL (≈ 5.79 µM)	>64 µg/mL	16c ug/mL	8 µg/mL (≈ 5.79 µM)	32e ug/mL
CCCCCCCCCCCC(=O)N[C@H](CCCNC(=N)N)C(=O)N[C@H](CO)C(=O)N[C@H](CCCNC(=N)N)C(=O)N[C@H](Cc1c[nH]c2ccccc12)C(=O)N[C@H](CCCNC(=N)N)C(=O)N[C@H](CC(=O)O)C(=O)N[C@@H](C(N)=O)C(C)C [Peptide 120, Lauryl-rsrwrdv-NH2] (Lauroyl-[dR][dS][dR][dW][dR][dD][dV]-NH2)	>64 µg/mL	64 µg/mL (≈ 55.4 µM)	16 µg/mL (≈ 13.8 µM)	>64 µg/mL	64c ug/mL	16 µg/mL (≈ 13.8 µM)	64e ug/mL
CCCCCCCCCCCC(=O)N[C@H](CCCNC(=N)N)C(=O)N[C@H](Cc1c[nH]c2ccccc12)C(=O)N[C@H](CCCNC(=N)N)C(=O)N[C@H](CC(=O)O)C(=O)N[C@@H](C(=O)N[C@H](C)C(=O)N[C@H](CCCNC(=N)N)C(N)=O)C(C)C [Peptide 122, Lauryl-rwrdvar-NH2] (Lauroyl-[dR][dW][dR][dD][dV][dA][dR]-NH2)	64 µg/mL (≈ 56.2 µM)	16 µg/mL (≈ 14 µM)	8 µg/mL (≈ 7.02 µM)	32 µg/mL (≈ 28.1 µM)	32c ug/mL	8 µg/mL (≈ 7.02 µM)	32e ug/mL
CCCCCCCCCCCC(=O)N[C@H](CCCNC(=N)N)C(=O)N[C@H](CC(=O)O)C(=O)N[C@@H](C(=O)N[C@H](C)C(=O)N[C@H](CCCNC(=N)N)C(=O)N[C@H](CC(N)=O)C(=O)N[C@H](Cc1ccccc1)C(=O)N[C@H](CCSC)C(=O)N[C@H](CCCNC(=N)N)C(N)=O)C(C)C [Peptide 128, Lauryl-rdvarnfmr-NH2] (Lauroyl-[dR][dD][dV][dA][dR][dN][dF][dM][dR]-NH2)	32 µg/mL (≈ 23.8 µM)	32 µg/mL (≈ 23.8 µM)	8 µg/mL (≈ 5.94 µM)	32 µg/mL (≈ 23.8 µM)	16c ug/mL	16 µg/mL (≈ 11.9 µM)	32e ug/mL
CCCCCCCCCCCC(=O)N[C@H](CCCNC(=N)N)C(=O)N[C@H](Cc1c[nH]c2ccccc12)C(=O)N[C@H](CCCNC(=N)N)C(=O)N[C@H](CC(=O)O)C(=O)N[C@@H](C(=O)N[C@H](C)C(=O)N[C@H](CCCNC(=N)N)C(=O)N[C@H](CC(N)=O)C(=O)N[C@H](Cc1ccccc1)C(=O)N[C@H](CCSC)C(=O)N[C@H](CCCNC(=N)N)C(N)=O)C(C)C [Peptide 130, Lauryl-rwrdvarnfmr-NH2] (Lauroyl-[dR][dW][dR][dD][dV][dA][dR][dN][dF][dM][dR]-NH2)	8 µg/mL (≈ 4.74 µM)	8 µg/mL (≈ 4.74 µM)	2 µg/mL (≈ 1.18 µM)	16 µg/mL (≈ 9.48 µM)	8c ug/mL	4 µg/mL (≈ 2.37 µM)	16e ug/mL
CCCCCCCCCCCC(=O)N[C@H](CO)C(=O)N[C@H](CCCNC(=N)N)C(=O)N[C@H](Cc1c[nH]c2ccccc12)C(=O)N[C@H](CCCNC(=N)N)C(=O)N[C@H](CC(=O)O)C(=O)N[C@@H](C(=O)N[C@H](C)C(=O)N[C@H](CCCNC(=N)N)C(=O)N[C@H](CC(N)=O)C(=O)N[C@H](Cc1ccccc1)C(=O)N[C@H](CCSC)C(=O)N[C@H](CCCNC(=N)N)C(N)=O)C(C)C [Peptide 131, Lauryl-srwrdvarnfmr-NH2] (Lauroyl-[dS][dR][dW][dR][dD][dV][dA][dR][dN][dF][dM][dR]-NH2)	8 µg/mL (≈ 4.51 µM)	8 µg/mL (≈ 4.51 µM)	2 µg/mL (≈ 1.13 µM)	8 µg/mL (≈ 4.51 µM)	2c ug/mL	4 µg/mL (≈ 2.25 µM)	16e ug/mL
